Measured values published in ChEMBL document CHEMBL5365481, “Design, Synthesis, and Activity Evaluation of Novel Dual-Target Inhibitors with Antifungal and Immunoregulatory Properties” (J Med Chem, 2023).
≈ marks a conversion by molar mass, not a printed value. Blank lines part the entries; values can stand above or below the compound they belong to. Calls of active or inactive are those of the source. No cut-off for these calls is given here.

Tests used:
Pichia kudriavzevii = test: Antifungal activity against Candida krusei ATCC 6258 assessed as inhibition of fungal growth incubated for 72 hrs by CLSI based liquid medium microdilution method; type: functional
Candida tropicalis = test: Antifungal activity against Candida tropicalis ATCC 1369 assessed as inhibition of fungal growth incubated for 72 hrs by CLSI based liquid medium microdilution method; type: functional
Candida albicans [1] = test: Antifungal activity against Candida albicans ATCC SC5314 assessed as inhibition of fungal growth incubated for 72 hrs by CLSI based liquid medium microdilution method; type: functional
Cryptococcus neoformans = test: Antifungal activity against Cryptococcus neoformans ZKCC 2209 assessed as inhibition of fungal growth incubated for 72 hrs by CLSI based liquid medium microdilution method; type: functional
Aspergillus fumigatus = test: Antifungal activity against Aspergillus fumigatus KM8001 assessed as inhibition of fungal growth incubated for 72 hrs by CLSI based liquid medium microdilution method; type: functional
Candida albicans [2] = test: Antifungal activity against fluconazole-resistant Candida albicans 904 assessed as inhibition of fungal growth incubated for 72 hrs by CLSI based liquid medium microdilution method; type: functional
Candida albicans [3] = test: In vivo antifungal activity against Candida albicans ATCC SC5314 infected in BALB/c mouse assessed as decrease in IFN-gamma expression level at 10 ug, ip for 14 days by Western blot analysis; type: functional, organism-based; details: dose 10.0 µg, time 14.0 day
[4] = biological target: T1, Lanosterol 14-alpha demethylase (Candida albicans (strain SC5314 / ATCC MYA-2876) (Yeast), UniProt P10613); test: Inhibition of Candida albicans ATCC SC5314 CYP51 assessed as other unknown sterol content at 4 ug/ml measured after 16 hrs by GC-MS analysis (Rvb= 3.82%); design: scale not given: the % may be the effect or the level left; details: at 4 µg/mL
T1 sequence (P10613 whole entry): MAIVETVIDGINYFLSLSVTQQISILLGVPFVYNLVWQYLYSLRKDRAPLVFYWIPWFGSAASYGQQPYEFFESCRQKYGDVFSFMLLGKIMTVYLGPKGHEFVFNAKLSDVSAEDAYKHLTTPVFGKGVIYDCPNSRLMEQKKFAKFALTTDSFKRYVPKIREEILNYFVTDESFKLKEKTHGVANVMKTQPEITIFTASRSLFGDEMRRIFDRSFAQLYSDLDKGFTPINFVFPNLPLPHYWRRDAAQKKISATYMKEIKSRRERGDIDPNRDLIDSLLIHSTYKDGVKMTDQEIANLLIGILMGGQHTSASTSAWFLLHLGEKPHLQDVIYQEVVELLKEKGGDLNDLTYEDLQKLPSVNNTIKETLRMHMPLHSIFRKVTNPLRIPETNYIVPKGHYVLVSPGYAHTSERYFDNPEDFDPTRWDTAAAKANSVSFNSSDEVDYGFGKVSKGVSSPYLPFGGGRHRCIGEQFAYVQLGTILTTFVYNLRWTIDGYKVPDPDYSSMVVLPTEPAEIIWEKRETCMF

Candida albicans [5] = test: Antifungal activity against Candida albicans ATCC SC5314 assessed as change in osmotic pressure at 1 microM/ml incubated for 48 hrs by absorbance based assay; type: functional, organism-based
Candida albicans [6] = test: Induction of ROS generation in Candida albicans ATCC SC5314 assessed as increase in fluorescence intensity at 1 microM/ml incubated for 48 hrs by fluorescent microscopy; type: functional, organism-based
Candida albicans [7] = test: In vivo antifungal activity against Candida albicans ATCC SC5314 infected in BALB/c mouse assessed as decrease in NLRP3 expression level at 10 ug, ip for 14 days by Western blot analysis; type: functional, organism-based; details: dose 10.0 µg, time 14.0 day
[8] = biological target: T1, Lanosterol 14-alpha demethylase; test: Inhibition of Candida albicans ATCC SC5314 CYP51 using lanosterol as substrate incubated for 30 mins by HPLC assay
[9] = biological target: T1, Lanosterol 14-alpha demethylase; test: Inhibition of Candida albicans ATCC SC5314 CYP51 assessed as ergosterol content at 4 ug/ml measured after 16 hrs by GC-MS analysis (reference value: 92.71%); design: scale not given: the % may be the effect or the level left; details: at 4 µg/mL
Candida albicans [10] = test: Antifungal activity against fluconazole-resistant Candida albicans 632 assessed as inhibition of fungal growth incubated for 72 hrs by CLSI based liquid medium microdilution method; type: functional
Candida albicans [11] = test: Induction of apoptosis in Candida albicans ATCC SC5314 assessed as early apoptotic cells at 1 microM/ml incubated for 48 hrs by Hoechst 33258/PI staining based flow cytometry (Rvb= 5.1 +/- 0.3%); type: functional
[12] = biological target: Programmed cell death 1 ligand 1 (Homo sapiens, UniProt Q9NZQ7); test: Binding affinity to PD-L1 (unknown origin) assessed as dissociation constant by SPR analysis
Sequence of Programmed cell death 1 ligand 1 (Q9NZQ7 whole entry): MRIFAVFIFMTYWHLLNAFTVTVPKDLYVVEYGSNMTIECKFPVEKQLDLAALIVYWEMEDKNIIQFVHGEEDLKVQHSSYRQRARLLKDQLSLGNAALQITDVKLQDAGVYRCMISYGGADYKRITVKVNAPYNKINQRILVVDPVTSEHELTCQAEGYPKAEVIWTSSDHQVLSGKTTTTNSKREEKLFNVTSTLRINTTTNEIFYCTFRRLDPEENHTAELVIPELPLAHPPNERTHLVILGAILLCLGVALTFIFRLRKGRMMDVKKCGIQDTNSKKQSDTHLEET

[13] = biological target: T1, Lanosterol 14-alpha demethylase; test: Inhibition of Candida albicans ATCC SC5314 CYP51 assessed as lanosterol content at 4 ug/ml measured after 16 hrs by GC-MS analysis relative to control; design: scale not given: the % may be the effect or the level left; details: at 4 µg/mL
Candida albicans [14] = test: Antifungal activity against Candida albicans ATCC SC5314 assessed as change in structural stability at 1 microM/ml incubated for 48 hrs by absorbance based assay; type: functional, organism-based
Candida albicans [15] = test: Antifungal activity against fluconazole-resistant Candida albicans 17# assessed as inhibition of fungal growth incubated for 72 hrs by CLSI based liquid medium microdilution method; type: functional
Candida albicans [16] = test: Induction of mitochondrial membrane depolarization in Candida albicans ATCC SC5314 assessed as depolarized cells at 1 microM/ml incubated for 24 hrs by JC-1 staining based flow cytometry assay (reference value: 0.3 to 5.1%); type: functional
[17] = biological target: T1, Lanosterol 14-alpha demethylase; test: Inhibition of Candida albicans ATCC SC5314 CYP51 assessed as eburicol content at 4 ug/ml measured after 16 hrs by GC-MS analysis (Rvb= 3.47%); design: scale not given: the % may be the effect or the level left; details: at 4 µg/mL
Candida albicans [18] = test: Induction of mitochondrial membrane depolarization in Candida albicans ATCC SC5314 assessed as polarized cells at 1 microM/ml incubated for 24 hrs by JC-1 staining based flow cytometry assay (reference value: 0.28 +/- 0.02%); type: functional
[19] = biological target: Programmed cell death protein 1/Programmed cell death 1 ligand 1 (Homo sapiens, UniProt Q9NZQ7); test: Inhibition of PD-1/PD-L1 interaction (unknown origin) incubated for 15 mins by ELISA; type: protein-complex assay
Sequence of Programmed cell death protein 1/Programmed cell death 1 ligand 1 (Q15116 whole entry): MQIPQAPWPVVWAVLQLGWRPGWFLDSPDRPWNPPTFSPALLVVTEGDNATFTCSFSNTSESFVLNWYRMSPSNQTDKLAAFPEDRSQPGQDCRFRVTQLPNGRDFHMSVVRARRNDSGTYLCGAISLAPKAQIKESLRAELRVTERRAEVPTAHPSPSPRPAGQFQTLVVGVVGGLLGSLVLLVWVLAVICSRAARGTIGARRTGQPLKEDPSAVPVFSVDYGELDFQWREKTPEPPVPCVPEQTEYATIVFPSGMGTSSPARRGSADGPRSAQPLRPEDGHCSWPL
Sequence of Programmed cell death protein 1/Programmed cell death 1 ligand 1 (Q9NZQ7 whole entry): as the sequence (Q9NZQ7 whole entry) above

Candida albicans [20] = test: Antifungal activity against fluconazole-resistant Candida albicans 901 assessed as inhibition of fungal growth incubated for 72 hrs by CLSI based liquid medium microdilution method; type: functional
Candida albicans [21] = test: Antifungal activity against fluconazole-resistant Candida albicans CaR assessed as inhibition of fungal growth incubated for 72 hrs by CLSI based liquid medium microdilution method; type: functional
Candida albicans [22] = test: Induction of apoptosis in Candida albicans ATCC SC5314 assessed as late apoptotic cells at 1 microM/ml incubated for 48 hrs by Hoechst 33258/PI staining based flow cytometry (Rvb= 0.05 +/- 0.01%); type: functional
Candida albicans [23] = test: Induction of apoptosis in Candida albicans ATCC SC5314 assessed as normal cells at 1 microM/ml incubated for 48 hrs by Hoechst 33258/PI staining based flow cytometry (Rvb= 94.8 +/- 0.3%); type: functional
Candida albicans [24] = test: In vivo antifungal activity against Candida albicans ATCC SC5314 infected in BALB/c mouse assessed as decrease in COX2 expression level at 10 ug, ip for 14 days by Western blot analysis; type: functional, organism-based; details: dose 10.0 µg, time 14.0 day
Candida albicans [25] = test: In vivo antifungal activity against Candida albicans ATCC SC5314 infected in BALB/c mouse assessed as decrease in PD-L1 expression level at 10 ug, ip for 14 days by Western blot analysis; type: functional, organism-based; details: dose 10.0 µg, time 14.0 day
Candida albicans [26] = test: Induction of apoptosis in Candida albicans ATCC SC5314 assessed as necrotic cells at 1 microM/ml incubated for 48 hrs by Hoechst 33258/PI staining based flow cytometry (Rvb= 0.03 +/- 0.01%); type: functional
Candida albicans [27] = test: Induction of apoptosis in Candida albicans ATCC SC5314 assessed as increase in blue fluorescence intensity at 1 microM/ml incubated for 48 hrs by Hoechst 33258/PI staining based fluorescence microscopy; type: functional, organism-based
Candida albicans [28] = test: Induction of mitochondrial membrane depolarization in Candida albicans ATCC SC5314 assessed as normal cells at 1 microM/ml incubated for 24 hrs by JC-1 staining based flow cytometry assay (reference value: 94.4 +/- 1.15%); type: functional
Candida albicans [29] = test: Antifungal activity against Candida albicans ATCC SC5314 assessed as decrease in fungal cell density at 1 microM/ml incubated for 48 hrs by absorbance based assay; type: functional, organism-based

Compound: O=C(NCc1ccccc1)c1nc(-n2cncn2)c2ccccc2n1
MIC50 (Pichia kudriavzevii): 4 µg/mL (≈ 12.1 µM)
MIC50 (Candida tropicalis): 1 µg/mL (≈ 3.03 µM)
MIC50 (Candida albicans [1]): 2 µg/mL (≈ 6.05 µM)
MIC50 (Cryptococcus neoformans): 2 µg/mL (≈ 6.05 µM)
MIC50 (Aspergillus fumigatus): > 8 µg/mL

Compound: CC(=O)c1ccc(NC(=O)c2nc(-n3ccnc3)c3cc(Cl)ccc3n2)cc1
MIC50 (Pichia kudriavzevii): 4 µg/mL (≈ 10.2 µM)
MIC50 (Candida tropicalis): 1 µg/mL (≈ 2.55 µM)
MIC50 (Candida albicans [1]): 1 µg/mL (≈ 2.55 µM)
MIC50 (Cryptococcus neoformans): 2 µg/mL (≈ 5.1 µM)
MIC50 (Aspergillus fumigatus): > 8 µg/mL

Compound: CC(=O)c1ccc(NC(=O)c2nc(-n3ccnc3)c3ccccc3n2)cc1
MIC50 (Pichia kudriavzevii): 1 µg/mL (≈ 2.8 µM)
MIC50 (Candida albicans [2]): 4 µg/mL (≈ 11.2 µM)
Activity (Candida albicans [3]): Active
Activity [4]: 6.14%
Activity (Candida albicans [5]): Active
Activity (Candida albicans [6]): Active
MIC50 (Candida tropicalis): 1 µg/mL (≈ 2.8 µM)
Activity (Candida albicans [7]): Active
IC50 [8]: 884 nM
Activity [9]: 21.53%
MIC50 (Candida albicans [10]): 2 µg/mL (≈ 5.6 µM)
Activity (Candida albicans [11]): 44.8%
Kd [12]: 34.5 nM
Activity [13]: 20.64%
Activity (Candida albicans [14]): Active
MIC50 (Candida albicans [1]): 0.5 µg/mL (≈ 1.4 µM)
MIC50 (Candida albicans [15]): 2 µg/mL (≈ 5.6 µM)
Activity (Candida albicans [16]): 0.16%
Activity [17]: 41.69%
Activity (Candida albicans [18]): 0.07%
MIC50 (Cryptococcus neoformans): 1 µg/mL (≈ 2.8 µM)
IC50 [19]: 83 nM
MIC50 (Candida albicans [20]): > 8 µg/mL
MIC50 (Candida albicans [21]): 4 µg/mL (≈ 11.2 µM)
MIC50 (Aspergillus fumigatus): 2 µg/mL (≈ 5.6 µM)
Activity (Candida albicans [22]): 0.13%
Activity (Candida albicans [23]): 55.1%
Activity (Candida albicans [24]): Active
Activity (Candida albicans [25]): Active
Activity (Candida albicans [26]): 0.03%
Activity (Candida albicans [27]): Active
Activity (Candida albicans [28]): 77.1%
Activity (Candida albicans [29]): Active

Compound: O=C(NC1CCCc2ccccc21)c1nc(-n2cncn2)c2cc(Cl)ccc2n1 (stereo not drawn)
MIC50 (Pichia kudriavzevii): > 8 µg/mL
MIC50 (Candida tropicalis): 2 µg/mL (≈ 4.94 µM)
MIC50 (Candida albicans [1]): 2 µg/mL (≈ 4.94 µM)
MIC50 (Cryptococcus neoformans): 2 µg/mL (≈ 4.94 µM)
MIC50 (Aspergillus fumigatus): > 8 µg/mL

Compound: CC(=O)N1CCN(c2ccc(OCC3COC(Cn4ccnc4)(c4ccc(Cl)cc4Cl)O3)cc2)CC1 (stereo not drawn) [KETOCONAZOLE]
MIC50 (Pichia kudriavzevii): 1 µg/mL (≈ 1.88 µM)
MIC50 (Candida albicans [2]): > 8 µg/mL
MIC50 (Candida tropicalis): 0.5 µg/mL (≈ 0.941 µM)
MIC50 (Candida albicans [10]): > 8 µg/mL
MIC50 (Candida albicans [1]): 2 µg/mL (≈ 3.76 µM)
MIC50 (Candida albicans [15]): 2 µg/mL (≈ 3.76 µM)
MIC50 (Cryptococcus neoformans): 1 µg/mL (≈ 1.88 µM)
MIC50 (Candida albicans [20]): 4 µg/mL (≈ 7.53 µM)
MIC50 (Candida albicans [21]): 4 µg/mL (≈ 7.53 µM)
MIC50 (Aspergillus fumigatus): 4 µg/mL (≈ 7.53 µM)

More lines, now with the values ahead:

MIC50 (Pichia kudriavzevii): 0.5 µg/mL (≈ 1.06 µM)
MIC50 (Candida tropicalis): 1 µg/mL (≈ 2.13 µM)
MIC50 (Candida albicans [1]): 0.5 µg/mL (≈ 1.06 µM)
MIC50 (Cryptococcus neoformans): 2 µg/mL (≈ 4.26 µM)
MIC50 (Aspergillus fumigatus): 4 µg/mL (≈ 8.52 µM)
Compound: CC(C)c1ccc(C(=O)N2CCC(NC(=O)c3nc(-n4cncn4)c4ccccc4n3)CC2)cc1

MIC50 (Pichia kudriavzevii): 0.5 µg/mL (≈ 1.09 µM)
MIC50 (Candida tropicalis): 0.5 µg/mL (≈ 1.09 µM)
MIC50 (Candida albicans [1]): 0.5 µg/mL (≈ 1.09 µM)
MIC50 (Cryptococcus neoformans): 1 µg/mL (≈ 2.19 µM)
MIC50 (Aspergillus fumigatus): 2 µg/mL (≈ 4.37 µM)
Compound: COc1ccc(C(=O)N2CCC(NC(=O)c3nc(-n4cncn4)c4ccccc4n3)CC2)cc1

MIC50 (Pichia kudriavzevii): 2 µg/mL (≈ 5.41 µM)
MIC50 (Candida tropicalis): 4 µg/mL (≈ 10.8 µM)
MIC50 (Candida albicans [1]): 4 µg/mL (≈ 10.8 µM)
MIC50 (Cryptococcus neoformans): 2 µg/mL (≈ 5.41 µM)
MIC50 (Aspergillus fumigatus): 4 µg/mL (≈ 10.8 µM)
Compound: O=C(NC1CCCc2ccccc21)c1nc(-n2ccnc2)c2ccccc2n1 (stereo not drawn)

MIC50 (Pichia kudriavzevii): 0.5 µg/mL (≈ 1.37 µM)
MIC50 (Candida tropicalis): 1 µg/mL (≈ 2.74 µM)
MIC50 (Candida albicans [1]): 1 µg/mL (≈ 2.74 µM)
MIC50 (Cryptococcus neoformans): 1 µg/mL (≈ 2.74 µM)
MIC50 (Aspergillus fumigatus): 2 µg/mL (≈ 5.48 µM)
Compound: O=C(NCc1ccccc1)c1nc(-n2cncn2)c2cc(Cl)ccc2n1

MIC50 (Pichia kudriavzevii): 1 µg/mL (≈ 2.79 µM)
MIC50 (Candida tropicalis): 0.5 µg/mL (≈ 1.4 µM)
MIC50 (Candida albicans [1]): 0.5 µg/mL (≈ 1.4 µM)
MIC50 (Cryptococcus neoformans): 0.5 µg/mL (≈ 1.4 µM)
MIC50 (Aspergillus fumigatus): 2 µg/mL (≈ 5.58 µM)
Compound: CC(=O)c1ccc(NC(=O)c2nc(-n3cncn3)c3ccccc3n2)cc1

MIC50 (Pichia kudriavzevii): 2 µg/mL (≈ 4.69 µM)
MIC50 (Candida tropicalis): 1 µg/mL (≈ 2.34 µM)
MIC50 (Candida albicans [1]): 1 µg/mL (≈ 2.34 µM)
MIC50 (Cryptococcus neoformans): 2 µg/mL (≈ 4.69 µM)
MIC50 (Aspergillus fumigatus): > 8 µg/mL
Compound: O=C(NC1CCN(C(=O)c2ccccc2)CC1)c1nc(-n2ccnc2)c2ccccc2n1
